Tests used:
[1] = molecular target: T1, DPAGT1 (Homo sapiens, UniProt Q9H3H5); test: DPAGT1 radiometric in vitro activity assay (end point, phosphorimaging of radio-TLC); type: biochemical; conditions: for % Activity of DPAGT1 in the presence of a tunicamycin analogue compared to a negative control (GFB): Table S1, analogue 1 µM, DPAGT1 1 µM, dolichyl monophosphate 50 µM, UDP-GlcNAc(1-14C) 50 µM, 37 °C, 21 min, three biological replicates; for DPAGT1 inhibition (in words): inhibitor 1 µM, enzyme:inhibitor 1:1, substrates 50 µM
T1 construct: full-length DPAGT1 bearing an additional tobacco etch virus (TEV) protease-cleavable N-terminal His6 tag; His6 with TEV protease cleavage site ([…]/S leader) (N, cleaved yes); made in house; host or cells: Spodoptera frugiperda Sf9 insect cells (baculovirus, pFB-LIC-Bse vector)
T1 sequence (Q9H3H5 with tags, fused parts or gaps): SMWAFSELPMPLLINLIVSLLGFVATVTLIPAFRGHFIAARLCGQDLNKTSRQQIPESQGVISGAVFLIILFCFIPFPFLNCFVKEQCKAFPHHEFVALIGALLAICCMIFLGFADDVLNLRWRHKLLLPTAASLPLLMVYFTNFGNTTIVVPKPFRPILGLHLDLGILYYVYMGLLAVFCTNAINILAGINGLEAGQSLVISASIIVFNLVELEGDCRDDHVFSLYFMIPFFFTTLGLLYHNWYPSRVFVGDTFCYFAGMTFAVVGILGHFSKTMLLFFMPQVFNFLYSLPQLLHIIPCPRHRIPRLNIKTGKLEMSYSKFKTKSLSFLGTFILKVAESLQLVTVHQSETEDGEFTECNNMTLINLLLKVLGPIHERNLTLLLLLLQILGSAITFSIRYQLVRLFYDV
From the text: Figure 2 Design, synthesis and in vitro inhibitory activity of lipid-altered tunicamycins. (A) Structure of DPAGT1 in complex with tunicamycin[21] showing key interactions primarily along TMH5 that in concert with a Trp122 “lid” create the lipid-engagement site (blue). This engagement contrasts with a small, gated pocket below bounded primarily by Leu293 in which only smaller moieties (here an acetamide) are accommodated (red). (B) Guided by this structure, as an apparent snapshot of a Michaelis complex-like mode of binding, modulation at two acyl sites in the core scaffold was explored. […] Semisynthesis allowed generation of graduated lipid tunicamycin analogues through regiochemical differentiation in carbamoylation to generate two key divergent intermediates: Tun-0E,0G and Tun-0E,2G. Subsequent differential acylations allow for generation of both symmetric and asymmetric Tun-XE,YG analogues. Reagents and conditions: (a) Ac2O, pyridine; (b) Boc2O, DMAP, THF; (c) NaOMe, MeOH; (d) 4 M HCl in dioxane, MeOH; (e) HATU, DIPEA, octanoic acid, DMF; (f) HATU, DIPEA, carboxylic acid; (g) HATU, DIPEA, 2 × carboxylic acid. (C) Residual % in vitro activity of DPAGT1 following incubation with analogues [DPAGT1 ([…]), MgCl2 (5 mM), Tun analogue ([…]), dolichol phosphate ([…]), and UDP-GlcNAc(1-^14C) ([…]) in 1% OGNG/CHS/cardiolipin] was assessed through end point assay at 37 °C via phosphorimaging. These were determined on the basis of three biological replicates, each using three technical replicates. Error bars shown are standard deviations.
The intended targeting and graduated modulation of DPAGT1’s PNPT activity was assessed in vitro using a highly pure recapitulated source. Briefly, full-length DPAGT1 bearing an additional tobacco etch virus (TEV) protease-cleavable N-terminal His6 tag was expressed using a baculovirus (DH10Bac)/insect cell (Spodoptera frugiperda Sf9) system using a pFB-LIC-Bse expression vector. DPAGT1 is an integral transmembrane enzyme, and thus, after harvesting and lysis, protein was extracted from the expression host membrane fraction using octyl glucose neopentyl glycol (OGNG) (1% w/v) and cholesterylhemisuccinate (CHS) (0.1% w/v) before isolation and purification by immobilized metal affinity chromatography (IMAC) using a Co^2+-charged (“TALON”) resin and elution with an imidazole gradient. To ensure that there were no confounding effects of the His6 tag, this was then cleaved with TEV protease followed by reverse IMAC and size exclusion chromatography in sequence.
Radiometric bisubstrate analyses allowed excellent sensitivity under the conditions necessary for proper recapitulation of the activity. Purified DPAGT1 (1 μM) was incubated with both substrates, dolichol monophosphate and radiolabeled UDP-N-acetyl-D-[1-^14C]glucosamine, at 50 μM, and the activity was determined directly by end point phosphor detection of product dolichol-PP-N-acetyl-D-[1-^14C]glucosamine formation.
MgCl2, 10 mM imidazole (pH 8.0), 200 mM NaCl , 2 mM TCEP (added fresh), 5% Glycerol, 0.18% OGNG, 0.01 8% CHS, 0.0036% cardiolipin) and the protein was eluted with WB supplemented with 250 mM imidazole (pH 8.0). The eluted protein was desalted using PD-10 columns (GE Healthcare) pre-equilibrated with gel filtration buffer (GFB: 20 mM HEPES (pH […]
cardiolipin). Desalted protein was subsequently treated with 10:1 TEV protease (w:w, protein:enzyme) overnight at 4 ° C. The TEV protease treated protein was separated from the 6-His-tagged enzymes and uncleaved DPAGT1 by incubation for 1 h with Talon resin (prepared as described above) at 4 °C for 1 h. The resin was collected in a column, the flowthrough collected and the protein sample was centrifuged at 21,500 rpm in a Beckman TA25.5 rotor for 10 min at 4 ° C. The supernatant was then concentrated to 0.5 mL using a 30 kDa cutoff PES concentrator (Corning), with mixing every 5 mins during concentration. The […]

[2] = test system: ATF4; test: ATF4 high-content imaging assay in primary human dermal fibroblasts; type: cell-based; conditions: 6 h, Figures S8–S12
Protocol: A targeted panel of tunicamycin analogues was tested in the ATF4 High Content Imaging assay to assess their ER stress generating ability in a primary cell line. Normal adult human dermal fibroblasts (NHDF-Ad, Lonza) were plated in a 96-well Phenoplate (PerkinElmer) at a seeding density of 10,000 cells per well in fibroblast growth medium (containing fibroblast basal medium, 10% FBS, 0.1% insulin, 0.1% hFGF-B, 0.1% Gentamicin/Amphotericin) and incubated at 37°C, 5% CO2. Treatment with pre-diluted compounds was performed after 24 hrs with final concentrations ranging from 10 µM – 5 nM (final DMSO concentration was 0.3%). Low control (0.3% DMSO final conc.) and high control (0.3 µM tunicamycin final conc.) wells were again included for assay normalization. Treated cells were incubated for 6 hrs at 37°C, 5% CO2 before fixing (4% PFA in PBS, 20 min at room temperature followed by washing (3x) with PBS). Direct ATF4 immunofluorescence staining was then performed, whereby cells were treated with a Coralite Plus 488-conjugated ATF4 Polyclonal antibody (CL488-10835, Proteintech) in a 1:100 dilution of Perm-block buffer (10% FBS, 0.3% TritonX-100 in PBS) for 2 hrs. Nuclei staining was then performed with DRAQ5 dye (ab108410, Abcam) at 1:1000 in PBS. Plates were imaged on a Leica SP8 confocal microscope equipped with 488 nm and 633 nm excitation and images were analysed using script-based algorithms as described for HEK cells above. […]

[3] = test system: His-tagged IgG-Fc domain; test: In cell glycoprotein inhibition assay (IgG-Fc expression, SDS-PAGE and Western blot); type: cell-based, human; conditions: HEK293T cells, 3 days, analogue 10 µM down to 0.5 nM (Tun-8E,2G 300 µM down to 15 nM), Figure S13
[4] = molecular target: T2, DPAGT1 (Homo sapiens, UniProt Q9H3H5); test: Heat-induced denaturation assay of DPAGT1 with bound ligand; type: binding; conditions: heat-induced denaturation; DPAGT1 alone 51.7 ± 0.2 °C
T2 sequence (Q9H3H5 1-408): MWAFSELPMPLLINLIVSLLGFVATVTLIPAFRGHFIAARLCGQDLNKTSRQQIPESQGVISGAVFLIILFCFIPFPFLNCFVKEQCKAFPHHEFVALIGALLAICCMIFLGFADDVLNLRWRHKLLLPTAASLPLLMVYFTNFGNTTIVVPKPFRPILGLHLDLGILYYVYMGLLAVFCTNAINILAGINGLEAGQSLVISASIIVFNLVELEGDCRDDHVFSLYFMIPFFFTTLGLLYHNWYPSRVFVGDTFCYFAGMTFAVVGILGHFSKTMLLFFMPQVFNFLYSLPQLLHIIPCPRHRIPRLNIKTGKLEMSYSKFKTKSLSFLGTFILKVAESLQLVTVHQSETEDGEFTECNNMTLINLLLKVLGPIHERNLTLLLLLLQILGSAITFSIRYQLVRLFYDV
From the text: The structure of DPAGT1 in complex with the archetypal scaffold natural product tunicamycin[21] […] Trp122 moves so as to use its indole moiety to hydrophobically provide a binding “cap” or “lid” over the proximal portion of the 10′-N lipid chain.

Compound | % Activity of DPAGT1 in the presence of a tunicamycin analogue compared to a negative control (GFB) [1] [%] | DPAGT1 inhibition (in words) [1] | increase in ATF4 (in words) [2] | glycosylation state of expressed IgG-Fc (in words) [3] | Tm,1/2 of DPAGT1 bound to ligand [4] [°C]
CCCCCCCC(=O)N[C@H]1[C@H](O[C@H]2O[C@H](CO)[C@@H](O)[C@H](O)[C@H]2NC(=O)CCCCCCC)O[C@H](C[C@@H](O)[C@H]2O[C@@H](n3ccc(=O)[nH]c3=O)[C@H](O)[C@@H]2O)[C@H](O)[C@@H]1O [Tun-8E,8G] | 90.0 | little to no significant inhibition | only Tun itself leads to an increase in ATF4 | expression of intact glycosylated protein | 
dolichol-1-phosphate [Dol-1-P] |  |  |  |  | 58.5 ± 0.3
CCCCCCCCC(=O)N[C@H]1[C@@H](O[C@@H]2O[C@H](C[C@@H](O)[C@H]3O[C@@H](n4ccc(=O)[nH]c4=O)[C@H](O)[C@@H]3O)[C@H](O)[C@H](O)[C@H]2NC(=O)CC(C)C)O[C@H](CO)[C@@H](O)[C@@H]1O [Tun-i5E,9G] | 90.7 | little to no significant inhibition |  |  | 
CCCCCCCCC(=O)N[C@H]1[C@H](O[C@H]2O[C@H](CO)[C@@H](O)[C@H](O)[C@H]2NC(=O)CCC)O[C@H](C[C@@H](O)[C@H]2O[C@@H](n3ccc(=O)[nH]c3=O)[C@H](O)[C@@H]2O)[C@H](O)[C@@H]1O [Tun-9E,4G] | 83.6 | did not cause a significant reduction in DPAGT1 activity |  |  | 

— article PMC11758266, “Lipid-Modulated, Graduated Inhibition of N-Glycosylation Pathway Priming Suggests Wide Tolerance of ER Proteostasis to Stress” (ACS Central Science, 2024)
